Results: patent EP4775208A1, “USE OF PRMT5 INHIBITOR IN TREATMENT OF TUMORS OR CANCERS” (Apeiron Therapeutics (Hong Kong) Ltd., priority 2023, dated 2025)

How the values were obtained:
Assay type in all cases: cell-based
[1] = test system: HCT-116 MTAP wild-type cells; assay: Inhibition of proliferation of HCT-116 MTAP wild-type cells (Cell-Titer Glo); conditions: 8 days
How it was run: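 MTAP wild-type HCT-116 cells were seeded, cultured overnight and then exposed to compound from 10,000 nM down in a 10-point, 3-fold series (0.1% DMSO). Plates were incubated 8 days at 37°C, 5% CO2. Proliferation was read by Cell-Titer Glo viability luminescence.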

U87MG MTAP(-/-) cells = assay: Inhibition of proliferation of U87MG MTAP(-/-) cells (CellTiter-Glo); conditions: cell proliferation, 6 days
Procedure: Test 7: Assay for Inhibitory Activity of Compounds against U87MG MTAP(-/-) Cell Proliferation
Materials and Cells: The U87MG MTAP(-/-) cell line was purchased from ATCC (USA). Cell culture media, fetal bovine serum (FBS), and penicillin-streptomycin were purchased from Thermo Fisher Scientific (USA). 384-well plates were purchased from PerkinElmer (USA). The CellTiter-Glo assay kit was purchased from Promega (USA).
Cell Culture: U87MG MTAP(-/-) cells were cultured in a medium supplemented with 10% fetal bovine serum (FBS) and 1% penicillin-streptomycin at 37°C with 5% CO2. Only cells in the logarithmic growth phase were used for experiments.
Cell Proliferation Inhibition Assay: The antiproliferative activity of the compounds against U87MG MTAP(-/-) cells was assessed using the CellTiter-Glo assay kit. Cell suspensions were adjusted to the appropriate density and seeded into 384-well plates at a volume of 40 µL per well, then incubated overnight at 37°C with 5% CO2. Compounds (40 nL) were added to each well to achieve final concentrations ranging from 0 to 10,000 nM (starting concentration 10,000 nM, 3-fold serial dilutions, 10 dose points), with a final DMSO concentration of […]. The cell plates were incubated at 37°C with 5% CO2 for 6 days. Subsequently, 40 µL of CellTiter-Glo reagent was added to measure cell viability. Paclitaxel was used as a control compound.

[2] = test system: HCT-116 MTAP(-/-) deficient cells; assay: Inhibition of proliferation of HCT-116 MTAP(-/-) deficient cells (Cell-Titer Glo); conditions: 8 days
How it was run: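 Cells in log-phase growth, RPMI-1640 with 10% FBS, seeded and left overnight at 37°C, 5% CO2. Compound tested at 0–10,000 nM (10 points, 3-fold, 0.1% DMSO) for 8 days at 37°C, 5% CO2. Viability read by CellTiter-Glo luminescence.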

Row | Compound | IC50 ([1]; Homo sapiens, HCT-116, 192 h) | IC50 (U87MG MTAP(-/-) cells; Homo sapiens, U-87 MG, 144 h) | IC50 ([2]; Homo sapiens, HCT-116, 192 h) | IC50 [1] | IC50 (U87MG MTAP(-/-) cells) | IC50 [2]
1 | C[C@H]1OC[C@@H](N(C)C(=O)c2ccc3nc(N)c4cncn4c3c2)c2ccc(F)cc21 (single isomer, unassigned) [Example 96] | 1260 nM | 91.1 nM | 6.6 nM | – | – | –
2 | C[C@H]1OC[C@@H](N(C)C(=O)c2cc3c(cn2)nc(N)c2cncn23)c2ccc(C(F)(F)F)cc21 (single isomer, unassigned) [Example 98] | 114 nM | 14.2 nM | 1.4 nM | – | – | –
3 | CCN(C(=O)c1ccc2nc(N)c3cncn3c2c1)[C@@H]1COc2cc(C(F)(F)F)ccc21 [Example 55, (S)-4-amino-N-ethyl-N-(6-(trifluoromethyl) -2,3-dihydrobenzofuran-3-yl)imidazo[1,5-a] quinoxaline-8-carbox amide] | 1220 nM | 74.9 nM | 11.8 nM | – | – | –
4 | (S)-4-amino-7-fluoro-N-methyl-N-(6-(1-me thyl-1H-pyrazol-4-yl) -2,3-dihydrobenzofura n-3-yl)imidazo[1,5-a] quinoxaline-8-carbox amide [Example 34] | – | – | – | 6570 nM | 179 nM | 29.6 nM
5 | C[C@H]1OC[C@@H](N(C)C(=O)c2ccc3nc(N)c4cncn4c3c2)c2ccc(C(F)(F)F)cc21 (single isomer, unassigned) [Example 106] | 145 nM | 10 nM | 3.5 nM | – | – | –
6 | CN(C(=O)c1cc2c(cc1C(F)(F)F)nc(N)c1cncn12)[C@@H]1COc2cc(C(F)(F)F)ccc21 [Example 36, (S)-4-amino-N-methy 1-7-(trifluoromethyl)-N-(6-(trifluoromethyl) -2,3-dihydrobenzofuran-3-yl)imidazo[1,5-a] quinoxaline-8-carbox amide] | 5130 nM | 343 nM | 36 nM | – | – | –
7 | CN(C(=O)c1ccc2nc(N)c3cncn3c2c1)[C@@H]1COc2cc(S(F)(F)(F)(F)F)ccc21 (single isomer, unassigned) [Example 104] | – | 28.8 nM | – | – | – | –
8 | 4-amino-N-methyl-N-(6-(trifluoromethyl)-2, 3-dihydrobenzo[b]thi ophen-3-yl)imidazo[1, 5-a]quinoxaline-8-car boxamide [Example 43] | – | – | – | 2990 nM | 322 nM | 22.4 nM
9 | CN(C(=O)c1ccc2nc(N)c3cncn3c2c1)[C@@H]1COc2cc(-c3cncc(C(F)(F)F)c3)ccc21 [Example 47, (S)-4-amino-N-methy 1-N-(6-(5-(trifluoromethyl)pyridin-3-yl)-2,3-dihydrobenzofuran-3-yl)imidazo[1,5-a]quin oxaline-8-carboxamide] | 4100 nM | 475 nM | 17.7 nM | – | – | –
10 | CN(C(=O)c1ccc2nc(N)c3cncn3c2c1)[C@@H]1COc2ccc(F)cc21 [Example 66, (S)-4-amino-N-(5-fluoro-2,3-dihydrobenzofuran-3-yl)-N-methyli midazo[1,5-a]quinoxa line-8-carboxamide] | > 20000 nM | – | 2260 nM | – | – | –
11 | CN(C(=O)c1ccc2nc(N)c3cncn3c2c1)[C@H]1COc2cc(C(F)(F)F)ccc21 [Example 51, (R)-4-amino-N-methy 1-N-(6-(trifluoromethy 1)-2,3-dihydrobenzofuran-3-yl)imidazo[1,5-a]quinoxaline-8-carbo xamide] | 5860 nM | – | 213 nM | – | – | –
12 | CN(C(=O)c1ccc2nc(N)c3c(C#N)ncn3c2c1)[C@@H]1COc2cc(C(F)(F)F)ccc21 [Example 131, (S)-4-amino-3-cyano-N-methyl-N-(6-(trifluoromethyl)-2,3-dihydrobenzofuran-3-yl)imidazo[1,5-a]quinoxaline-8-carboxamide] | > 10000 nM | – | > 3000 nM | – | – | –
13 | CN(C(=O)c1cc2c(cc1F)nc(N)c1cncn12)[C@@H]1COc2cc(OC(F)(F)F)ccc21 [Example 57, (S)-4-amino-7-fluoro-N-methyl-N-(6-(trifluoromethoxy)-2,3-dihydrobenzofuran-3-yl)i midazo[1,5-a]quinoxa line-8-carboxamide] | 1870 nM | – | 10.5 nM | – | – | –
14 | (R)-4-amino-N-cyclo propyl-N-(6-(trifluoro methyl)-2,3-dihydrob enzofuran-3-yl)imidaz o[1,5-a]pyrido[3,4-e]p yrazine-8-carboxamid e [Example 87] | – | – | – | 10800 nM | – | 9030 nM
15 | CN(C(=O)c1cc2c(cc1Cl)nc(N)c1cncn12)[C@@H]1COc2ccc(F)cc21 [Example 63, (S)-4-amino-7-chloro-N-(5-fluoro-2,3-dihydrobenzofuran-3-yl)-N-methylimidazo[1,5-a] quinoxaline-8-carbox amide] | 3260 nM | – | 46.8 nM | – | – | –
16 | (R)-4-amino-7-fluoro-N-methyl-N-(7-(1-(tri fluoromethyl)-1H-pyr azol-4-yl)chroman-4-ylimidazo[1,5-a]quin oxaline-8-carboxamid e [Example 113] | – | – | – | > 10000 nM | – | 88.1 nM
17 | CN(C(=O)c1ccc2nc(N)c3cncn3c2c1)[C@@H]1COc2cc(Br)ccc21 [Example 3, (S)-4-amino-N-(6-bromo-2,3-dihydrobenzof uran-3-yl)-N-methyli midazo[1,5-a]quinoxaline-8-carboxamide] | 2250 nM | – | 23.4 nM | – | – | –
18 | CC1OC[C@@H](N(C)C(=O)c2ccc3nc(N)c4cncn4c3c2)c2ccc(C(F)(F)F)cc21 (stereo partly drawn) [Example 5, 4-amino-N-methyl-N-((4S)-1-methyl-7-(trifluoromethyl)isochroman-4-yl)imidazo[1,5-a]quinoxaline-8-carbox amide] | 280 nM | – | 4 nM | – | – | –
19 | CN(C(=O)c1ccc2nc(N)c3cncn3c2c1)C1COc2ccccc21 (centres unmarked) [Example 1, 4-amino-N-(2,3-dihydrobenzofuran-3-yl)-N-methylimidazo[1,5-a]quinoxaline-8-carboxamide] | > 10000 nM | – | 2310 nM | – | – | –
20 | Cc1ncn2c1c(N)nc1ccc(C(=O)N(C)[C@@H]3COc4cc(C(F)(F)F)ccc43)cc12 [Example 6, (S)-4-amino-N,3-dime thyl-N-(6-(trifluoromethyl)-2,3-dihydrobenzofuran-3-yl)imidazo[1 ,5-a]quinoxaline-8-car boxamide] | 993 nM | – | 10.6 nM | – | – | –
21 | CN(C(=O)c1ccc2nc(N)c3cc(F)cn3c2c1)[C@@H]1COc2cc(C(F)(F)F)ccc21 [Example 42, (S)-4-amino-2-fluoro-N-methyl-N-(6-(trifluoromethyl)-2,3-dihydrobenzofuran-3-yl)pyrr olo[1,2-a]quinoxaline-8-carboxamide] | 5460 nM | – | 660 nM | – | – | –
22 | Cc1ncn2c1c(N)nc1ccc(C(=O)N(C3CC3)[C@@H]3COc4cc(C(F)(F)F)ccc43)cc12 (single isomer, unassigned) [Example 86] | 1330 nM | – | 61.1 nM | – | – | –
23 | CN(C(=O)c1ccc2nc(N)c3cncn3c2c1)[C@@H]1CCOc2cc(C(F)(F)F)ccc21 [Example 25, (R)-4-amino-N-methy 1-N-(7-(trifluoromethy 1)chroman-4-yl)imida zo[1,5-a]quinoxaline-8-carboxamide] | > 10000 nM | – | 177 nM | – | – | –
24 | 4-amino-N-methyl-N-((1S,4S)-1-methyl-7-( trifluoromethyl)isochr oman-4-yl)imidazo[1, 5-a]quinoxaline-8-car boxamide [Example 105] | – | – | – | 2190 nM | – | 66.1 nM
25 | (S)-4-amino-N-(6-cya no-2,3-dihydrobenzof uran-3-yl)-N-cyclopro pylimidazo[1,5-a]quin oxaline-8-carboxamid e [Example 92] | – | – | – | 4750 nM | – | 46.6 nM
26 | Cc1ncc(-c2ccc3c(c2)OCC3N(C(=O)c2ccc3nc(N)c4cncn4c3c2)C2CC2)cn1 (centres unmarked) [Example 72, 4-amino-N-cyclopropyl-N-(6-(2-methylpyrimidin-5-yl)-2,3-dihydrobenzofuran-3-yl)imi dazo[1,5-a]quinoxaline-8-carboxamide] | > 20000 nM | – | 117 nM | – | – | –
27 | CN(C(=O)c1ccc2nc(N)c3cncn3c2c1)[C@@H]1COc2cc(NS(=O)(=O)C(F)(F)F)ccc21 [Example 76, (S)-4-amino-N-methyl-N-(6-((trifluoromethyl)sulfonamido)-2,3-dihydrobenzofuran-3-yl)imida zo[1,5-a]quinoxaline-8-carboxamide] | > 10000 nM | – | > 3000 nM | – | – | –
28 | (R)-4-amino-N-cyclo propyl-N-(6-(trifluoro methyl)-2,3-dihydrob enzofuran-3-yl)imidaz o[1,5-a]quinoxaline-8 -carboxamide [Example 83] | – | – | – | 4700 nM | – | 2640 nM
29 | CN(C(=O)c1ccc2nc(N)c3cncn3c2c1)[C@H]1CSc2cc(C(F)(F)F)ccc21 (single isomer, unassigned) [Example 101] | > 10000 nM | – | 2190 nM | – | – | –
